For 15 compounds, inhibition and IC50 results are on record in US5760036A, “Aminediol protease inhibitors” (E. R. Squibb & Sons, Inc., priority 1995, dated 1998).

For one test, the target named is T1, HIV protease (Human immunodeficiency virus type 1 group M subtype B, UniProt P04585).
T1 construct: and purified protease
Description: HIV Protease Assay. It counts as biochemical. In a few lines:
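Purified protease cleaved 450 μM octapeptide substrate in 50 mM sodium acetate pH 5.5 with 100 μg/ml BSA for 30 minutes at 37° C; product analyzed by reverse-phase HPLC at UV220 after H3PO4 quench. Inhibitors tested at final 10 μM with 4% DMSO.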

Test [1] has as its system RF strain of HIV (CEM-SS cells). The test is described as follows: Cell Culture Anti-HIV Activity (cell viability, formazan). It counts as cell-based. Particulars: Human immunodeficiency virus 1, CEM-SS, 144 h, CEM-SS cells, RF strain of HIV, multiplicity of infection 0.04, 6 days at 37° C., 450 nm; read-out: HIV (CEM Cells) IC50. In a few lines:
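CEM-SS cells (5000/well) infected with HIV RF at MOI 0.04, exposed to half-log serial compound dilutions, incubated 6 days at 37° C. Viability read by tetrazolium reduction to formazan, absorbance 450 nm. IC50 is the concentration raising formazan in infected cells to 50% of uninfected, drug-free cells.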

Where [2] appears, read: pH 5.5, 10 μM inhibitor, 4% DMSO, 450 μM substrate, pH 5.5, 30 minutes at 37° C., RP-HPLC, read-out: HIV Protease % Inhibition at 10 μM.

Each structure is given as a SMILES string. Where two headings read alike, the source gives them in different places.

The inhibition is the change of the read-out against control, counted positive when it falls. The IC50 is the concentration that gives 50% inhibition.

For `CC(C)(C)OC(=O)N[C@@H](Cc1ccccc1)[C@H](O)CNC[C@@H](O)[C@H](Cc1ccccc1)NC(=O)OC1CCCOC1` (stereo partly drawn) [Compound 318, [1S-(1R*,2S*)]-[Iminobis[2-hydroxy-1-(phenylmethyl)-3,1-propanediyl)]bis[carbamic acid], 1,1-dimethylethyl-3-tetrahydropyranyl ester], on HIV protease (setting [2]), the inhibition at 10 µM was found to be 100%. Besides, the IC50 in test [1] amounted to 0.1 µM.
`CC(C)(C)OC(=O)N[C@@H](Cc1ccccc1)[C@H](O)CNC[C@@H](O)[C@H](Cc1ccccc1)NC(=O)OC1COC1` [Compound 319]: the inhibition at 10 µM on HIV protease (setting [2]) worked out at 93%. The IC50 in test [1] came to 1.37 µM.
The matching figures for `COC(=O)N(C)[C@H](C(=O)N[C@@H](Cc1ccccc1)[C@H](O)CNC[C@@H](O)[C@H](Cc1ccccc1)NC(=O)OC(C)(C)C)C(C)(C)C` [Compound 320, [1S-[1R*,2S*,(2S*,3R*)]-[2,2-Dimethyl-1-[[[3-[[3-(1,1-dimethylethoxy)-carbonyl]amino]-2-hydroxy-4-phenylbutyl]amino]-2-hydroxy-1-(phenylmethyl)propyl]amino]-carbonyl]propyl]methylcarbamic acid, methyl ester]: 100% and 0.22 µM.
The matching figures for `CC(C)(C)OC(=O)N[C@@H](Cc1ccccc1)[C@H](O)CNC[C@@H](O)[C@H](Cc1ccccc1)NC(=O)[C@@H](NC(=O)OCc1cc2ncccc2o1)C(C)(C)C` [Compound 323, [S-[1R*,2S*(2S*,3R*)]]-[r2,2-Dimethyl-1-[[[3-[[3-[[(1.1-dimethylethoxy)carbonyl]amino]-2-hydroxy-4-phenylbutyl]amino]-2-hydroxy-1-(phenylmethyl)propyl]amino]carbonyl]propyl]carbamic acid, (2-furo[3,2-b]pyridinyl)methyl ester]: 100% and 0.014 µM.
For the compound `COC(C(=O)N[C@@H](Cc1ccccc1)[C@H](O)CNC[C@@H](O)[C@H](Cc1ccccc1)NC(=O)OC(C)(C)C)C(C)(C)C` (stereo partly drawn) [Compound 325, [1S-[1R*,2S*(2S*,3R*)]]-[2-Hydroxy-3-[[2-hydroxy-3-[(2-methoxy-3,3-dimethyl-1-oxobutyl)amino]-4-phenylbutyl]amino]-1-(phenylmethyl)-propyl]carbamic acid, 1,1-dimethylethyl ester], on HIV protease (setting [2]), the inhibition at 10 µM came out at 90%. In test [1], the concentration for half-maximal inhibition (IC50) amounted to 1.54 µM.
The like results for `CC(C)(C)OC(=O)N[C@@H](Cc1ccccc1)[C@H](O)CNC[C@@H](O)[C@H](Cc1ccccc1)NC(=O)[C@@H](NC(=O)OCCOc1ccccc1)C(C)(C)C` [Compound 326, [S-[1R*,2S*(2S*,3R*)]]-[2,2-Dimethyl-1-[[[3-[[3-[[(1,1-dimethylethoxy)carbonyl]amino]-2-hydroxy-4-phenylbutyl]amino]-2-hydroxy-1-(phenylmethyl)propyl]amino]carbonyl]propyl]carbamic acid, (2-(phenyloxy)ethyl ester] were, in that order, 99% and 0.03 µM.
The like results for `CC(C)(C)OC(=O)N[C@@H](Cc1ccccc1)[C@H](O)CNC[C@@H](O)[C@H](Cc1ccccc1)NC(=O)C(NC(=O)OCc1ccccc1)C(F)(F)F` (stereo partly drawn) [Compound 328, [1S-[1R*,2S*(2S*,3R*)]]-[2-[[3-[[3-[[(1,1-Dimethylethoxy)carbonyl]amino]-2-hydroxy-4-phenylbutyl]amino]-2-hydroxy-1-(phenylmethyl)propyl]amino]-2-oxo-1-(trifluoromethyl)ethyl]carbamic acid, phenylmethyl ester] were, in that order, 99% and 0.54 µM.
`CC(C)(C)OC(=O)N[C@@H](Cc1ccccc1)[C@H](O)CNC[C@@H](O)[C@H](Cc1ccccc1)NC(=O)C1(O)CCOC1` (stereo partly drawn) [Compound 330, [1S-[1R*,2S*(2S*,3R*)]]-[2-hydroxy-3-[[2-hydroxy-3-[[(tetrahydro-3-hydroxy-3-furanyl)carbonyl]amino]-4-phenylbutyl]amino]-1-(phenylmethyl)propyl]carbamic acid, 1,1-dimethylethyl ester]: the inhibition at 10 µM on HIV protease (setting [2]) was determined as 92%. In addition, the IC50 in test [1] worked out at 0.85 µM.
With `CC(C)(C)OC(=O)N[C@@H](Cc1ccccc1)[C@H](O)CNC[C@@H](O)[C@H](Cc1ccccc1)NC(=O)O[C@H]1CCOC1` [Compound 331, [1S-(1R*,2S*,3R*)]-[Iminobis[2-hydroxy-1-(phenylmethyl)-3,1-propanediyl]]bis[carbamic acid], 3-tetrahydrofuranyl 1,1-dimethylethyl ester], the inhibition at 10 µM on HIV protease (setting [2]) came out at 99%. Also, the IC50 in test [1] came out at 0.06 µM.
In the case of `CC(C)(C)OC(=O)N[C@@H](Cc1ccccc1)[C@H](O)CNC[C@@H](O)[C@H](Cc1ccc(OCC(=O)N2CCCCC2)cc1)NC(=O)OC(C)(C)C` [Compound 332], at HIV protease (pH 5.5, read-out: HIV Protease % Inhibition at 10 μM), the inhibition at 10 µM came to 100%. For the same compound, the IC50 in test [1] stood at 0.07 µM.
`CC(C)(CO)OC(=O)N[C@@H](Cc1ccccc1)[C@H](O)CNC[C@@H](O)[C@H](Cc1ccccc1)NC(=O)[C@](C)(O)C(C)(C)C` [Compound 333, [1S-[1R*,2S*[2S*3R*(S*)]]]-[3-[[3-[(2-Hydroxy-2,3,3-trimethyl-1-oxobutyl)amino]-2-hydroxy-4-phenylbutyl]amino-2-hydroxy-1-(phenylmethyl)propyl]carbamic acid, 2-hydroxy-1,1-dimethylethyl ester]: the inhibition at 10 µM at HIV protease (setting [2]) came out at 100%. Also, the IC50 in test [1] worked out at 0.15 µM.
The like results for `CC(C)(C)OC(=O)N[C@@H](Cc1ccccc1)[C@H](O)CNC[C@@H](O)[C@H](Cc1ccccc1)NC(=O)[C@H](O)C(C)(C)C` [Compound 334, [1S-[1R*,2S*[2S*,3R*(S*)]]]-[3-[[3-[(2-Hydroxy-3,3-dimethyl-1-oxobutyl)amino]-2-hydroxy-4-phenylbutyl]amino]-2-hydroxy-1-(phenylmethyl)propyl]carbamic acid, 1,1-dimethylethyl ester] were, in that order, 99% and 0.05 µM.
The like results for `O=C(N[C@@H](Cc1ccccc1)[C@H](O)CNC[C@@H](O)[C@H](Cc1ccccc1)NC(=O)O[C@H]1CCOC1)O[C@H]1CCOC1` [Compound 338, [1S-(1R*,2S*), (R*)]-[Iminobis[2-hydroxy-1-(phenylmethyl)-3,1-propanediyl]]bis[carbamic acid], bis(3-tetrahydrofuranyl)ester] were, in that order, 99% and 0.93 µM.
The matching figures for `CC(C)(C)OC(=O)N[C@@H](Cc1ccccc1)[C@H](O)CNC[C@@H](O)[C@H](Cc1ccccc1)NC(=O)[C@@H](NC(=O)OCc1cc2ccncc2o1)C(C)(C)C` [Compound 339, [S-[1R*,2S*(2S*,3R*)]]-[2,2-Dimethyl-1-[[[3-[[3-[[(1,1-dimethylethoxy)carbonyl]amino]-2-hydroxy-4-phenylbutyl]amino]-2-hydroxy-1-(phenylmethyl)-propyl]amino]carbonyl]propyl]carbamic acid, (2-furo[2,3-c]pyridinyl) methyl ester]: 99% and 0.012 µM.
For the compound `CC(C)(C)OC(=O)N[C@@H](Cc1ccccc1)[C@H](O)CNC[C@@H](O)[C@H](Cc1ccc(OCCN2CCOC2=O)cc1)NC(=O)OC(C)(C)C` [Compound 343, [1S-[1R*,2S*(2S*,3R*)]]-[1-[[[3-[[(1,1-Dimethylethoxy)carbonyl]amino]-2-hydroxy-4-[4-[2-(2-oxo-3-oxazolidinyl)ethoxy]phenyl]butyl]amino]-2-hydroxy-1-(phenylmethyl)propyl]carbamic acid, 1,1-dimethylethyl ester], the inhibition at 10 µM on HIV protease (setting [2]) stood at 99%. Further, the concentration for half-maximal inhibition (IC50) in test [1] came to 0.05 µM.
